According to US20260008760A1, “DIPEPTIDYL PEPTIDASE 1 INHIBITORS AND USES THEREOF” (Insmed Incorporated, priority 2024, published 2026):

Key:
DPP1 in HL-60 cells = DPP1 in HL-60 cells (Homo sapiens, UniProt P53634); assay: DPP1 Cell Single-Point Percent Inhibition Testing; type: cell-based; set-up: host or cells: HL-60 cells; settings: final compound concentration 5 nM, n = 1
Procedure: Example 100. DPP1 Cell Single-Point Percent Inhibition Testing
HL-60 cells (ATCC; Manassas, VA) were maintained in RPMI-1640 supplemented with 20% heat-inactivated FBS and 1× Antibiotic Antimycotic (Cytiva; Marlborough, MA). Media was changed every three to four days and cells were not allowed to exceed 1×10^6 cells per mL. Prior to assay, cells were collected by centrifugation at 500 rcf for 3 minutes, resuspended in RPMI (with no additional supplements) and counted. Cells were diluted in RPMI to a concentration of 5×10^5 live cells per mL and transferred to black 96-well plates for assay, 60 μL per well. Test articles were diluted to 25 nM in RPMI plus 0.5% DMSO, and 20 μL was added to each assay well. Compound was allowed to pre-incubate with cells with gentle shaking at 100 rpm for 60 minutes at 37° C. in a cell culture incubator maintained at 5% CO2, after which 20 μL of 500 μM H-Gly-Phe-AFC cell-permeable substrate (MP Biomedicals; Solon, OH) in RPMI was added to each well, giving final compound concentration of 5 nM, a final substrate concentration of 100 μM and a final DMSO concentration of 0.1%. Plates were returned to the incubator with shaking at 100 rpm for 30 minutes, after which fluorescence was measured at Excitation/Emission 400/505 nm. Percent Inhibition was calculated from RFU values by first subtracting background values (wells in which RPMI was substituted for cells) from each well, and then subtracting background-subtracted RFU derived from wells that received a final concentration of 10 μM brensocatib. This value represents the non-specific substrate cleavage from the HL-60 cells, and the remaining RFU should theoretically be solely the contribution of DPP1 enzyme activity. The final percent inhibition value was calculated for each test article based on remaining RFU compared to RFU from wells that received only vehicle control.

human DPP1 enzyme = human DPP1 enzyme (Homo sapiens, UniProt P53634); assay: Human DPP1 Enzyme Single-Point Percent Inhibition Testing (HL-60 lysate); type: biochemical; set-up: A crude lysate of HL-60 cells (ATCC; Manassas, VA) was used as a source of human DPP1 enzyme; host or cells: HL-60 cells (crude lysate); settings: final compound concentration of 10 nM, 400 μM H-Gly-Arg-AMC, n = 1
Procedure: Example 98. Human DPP1 Enzyme Single-Point Percent Inhibition Testing
A crude lysate of HL-60 cells (ATCC; Manassas, VA) was used as a source of human DPP1 enzyme in the assay. Lysate was prepared in 1% Triton X-100 in PBS at a concentration of 20,000 live cells per μL of lysis buffer and was centrifuged at 16,000 rcf for 10 minutes at 4° C., after which supernatant was collected and flash-frozen in liquid nitrogen. Test articles were applied to human DPP1 enzyme in Assay Buffer (25 mM MES pH 6.0, 50 mM NaCl, 5 mM DTT) in a total reaction volume of 125 μL. 25 μL of compound diluted to 50 nM in Assay Buffer plus 5% DMSO was first added to 50 μL of HL-60 lysate diluted to contain a DPP1 enzyme concentration of roughly 1 ng/μL and allowed to pre-incubate for 10 minutes at 37° C. after which 50 μL of 1000 μM H-Gly-Arg-AMC substrate (Bachem; St. Torrance, CA) was added, giving final compound concentration of 10 nM, a final substrate concentration of 400 μM and a final DMSO concentration of 1%. Substrate cleavage was measured for 90 minutes at 37° C., with fluorescence at Excitation/Emission 350/450 nm measured every 5 minutes. DPP1 concentration was interpolated based on its activity relative to a standard curve of activated human recombinant DPP1 enzyme. Percent inhibition at 10 nM was calculated for each test article based on remaining DPP1 activity compared to enzyme activity in wells that received only vehicle control.

Chain of DPP1 in HL-60 cells (P53634 25-463): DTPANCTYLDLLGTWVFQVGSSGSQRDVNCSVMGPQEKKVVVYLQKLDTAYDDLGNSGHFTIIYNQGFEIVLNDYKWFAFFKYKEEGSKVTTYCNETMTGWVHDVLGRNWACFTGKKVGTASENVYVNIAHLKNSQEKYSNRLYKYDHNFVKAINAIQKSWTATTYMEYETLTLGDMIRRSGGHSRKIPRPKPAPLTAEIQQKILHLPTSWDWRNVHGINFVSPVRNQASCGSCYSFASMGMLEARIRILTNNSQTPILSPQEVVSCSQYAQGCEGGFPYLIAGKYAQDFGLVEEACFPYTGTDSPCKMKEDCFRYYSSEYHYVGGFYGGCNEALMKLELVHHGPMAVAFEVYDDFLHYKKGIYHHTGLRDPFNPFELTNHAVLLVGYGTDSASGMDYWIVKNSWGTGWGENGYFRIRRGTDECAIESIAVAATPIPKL
Chain of human DPP1 enzyme (P53634 25-463): as above

Compound | inhibition at 0.005 µM (DPP1 in HL-60 cells) | inhibition at 0.01 µM (human DPP1 enzyme)
COC1CNC[C@@H](C(=O)N[C@H](C#N)Cc2ccc(-c3cnc4c(n3)CCCC4)cc2)OC1 (some centres unmarked) [Compound A90] | ≤ 76.5% | ≥ 66.7%
COC1CNC[C@@H](C(=O)N[C@H](C#N)Cc2ccc(-c3cnc4c(n3)CCCC4)cc2F)OC1 (some centres unmarked) [Compound A91] | ≤ 76.5% | ≥ 66.7%
CO[C@H]1CCO[C@H](C(=O)N[C@H](C#N)Cc2ccc(-c3ccc4c(n3)CCCN4)cc2)CNC1 [Compound A93] | ≤ 76.5% | ≤ 40%
CO[C@H]1CCO[C@H](C(=O)N[C@H](C#N)Cc2ccc(-c3cc4c(C)nc(C)cn4c3)cc2F)CNC1 [Compound A94] | ≤ 76.5% | ≤ 40%
CO[C@H]1CCO[C@H](C(=O)N[C@H](C#N)Cc2ccc(-c3ccc4c(n3)CCCN4)cc2F)CNC1 [Compound A95] | ≤ 76.5% | 40 to 66.7%
CO[C@H]1CCO[C@H](C(=O)N[C@H](C#N)Cc2ccc(-c3cnc4c(n3)CCCC4)cc2)CNC1 [Compound A96] | ≤ 76.5% | 40 to 66.7%
CO[C@H]1CCO[C@H](C(=O)N[C@H](C#N)Cc2ccc(-c3cnc4c(n3)CCCC4)cc2F)CNC1 [Compound A97] | ≤ 76.5% | 40 to 66.7%
Cc1cn2cc(-c3ccc(C[C@@H](C#N)NC(=O)[C@@H]4CN[C@@H](C)[C@H](O)CO4)cc3)cc2c(C)n1 [Compound A98] | ≤ 76.5% | ≥ 66.7%
C[C@@H]1NC[C@@H](C(=O)N[C@H](C#N)Cc2ccc(-c3ccc4c(n3)CCCN4)cc2F)OC[C@H]1O [Compound A101] | 76.5 to 93.9% | ≥ 66.7%
Cc1cn2cc(-c3ccc(C[C@@H](C#N)NC(=O)[C@@H]4CN[C@@H](C)[C@@H](O)CO4)cc3)cc2c(C)n1 [Compound A104] | ≤ 76.5% | ≤ 40%
Cc1cn2cc(-c3ccc(C[C@@H](C#N)NC(=O)[C@@H]4CN[C@@H](C)[C@@H](O)CO4)c(F)c3)cc2c(C)n1 [Compound A106] | ≤ 76.5% | ≤ 40%
C[C@@H]1NC[C@@H](C(=O)N[C@H](C#N)Cc2ccc(-c3ccc4c(n3)CCCN4)cc2F)OC[C@@H]1O [Compound A107] | ≤ 76.5% | ≤ 40%
C[C@@H]1NC[C@@H](C(=O)N[C@H](C#N)Cc2ccc(-c3cnc4c(n3)CCCC4)cc2)OC[C@@H]1O [Compound A108] | ≤ 76.5% | ≤ 40%
N#C[C@H](Cc1ccc(-c2ccc3c(n2)CCCN3)cc1)NC(=O)[C@@H]1CNCCCCO1 [Compound A111] | ≤ 76.5% | ≤ 40%
N#C[C@H](Cc1ccc(-c2cnc3c(n2)CCCC3)cc1)NC(=O)[C@@H]1CNCCCCO1 [Compound A114] | ≤ 76.5% | ≤ 40%
N#C[C@H](Cc1ccc(-c2cnc3c(n2)CCCC3)cc1F)NC(=O)[C@@H]1CNCCCCO1 [Compound A115] | ≤ 76.5% | ≤ 40%
Cc1cn2cc(-c3ccc(C[C@@H](C#N)NC(=O)[C@@H]4CNCCCO4)cc3)cc2c(C)n1 [Compound A116] | ≤ 76.5% | ≤ 40%
N#C[C@H](Cc1ccc(-c2ccc3c(n2)CCCN3)cc1)NC(=O)[C@@H]1CNCCCO1 [Compound A117] | ≤ 76.5% | ≤ 40%
Cc1cn2cc(-c3ccc(C[C@@H](C#N)NC(=O)[C@@H]4CNCCCO4)c(F)c3)cc2c(C)n1 [Compound A118] | ≤ 76.5% | ≤ 40%
N#C[C@H](Cc1ccc(-c2ccc3c(n2)CCCN3)cc1F)NC(=O)[C@@H]1CNCCCO1 [Compound A119] | ≤ 76.5% | ≤ 40%

Continued, values first:

inhibition at 0.005 µM (DPP1 in HL-60 cells) | inhibition at 0.01 µM (human DPP1 enzyme) | Compound
≤ 76.5% | ≤ 40% | N#C[C@H](Cc1ccc(-c2cnc3c(n2)CCCC3)cc1F)NC(=O)[C@@H]1CNCCCO1 [Compound A120]
76.5 to 93.9% | ≥ 66.7% | CO[C@@H]1CCNC[C@@H](C(=O)N[C@H](C#N)Cc2ccc(-c3cc4c(C)ncc(C)n4c3)cc2)OC1 [Compound A122]
≥ 93.9% | ≥ 66.7% | CO[C@@H]1CCNC[C@@H](C(=O)N[C@H](C#N)Cc2ccc(-c3cc4c(C)nc(C)c(C)n4c3)cc2)OC1 [Compound A123]
≥ 93.9% | ≥ 66.7% | COC1CNC[C@@H](C(=O)N[C@H](C#N)Cc2ccc(-c3cc4c(C)ncc(C)n4c3)cc2)OC1 (some centres unmarked) [Compound A125]
≥ 93.9% | ≥ 66.7% | COC1CNC[C@@H](C(=O)N[C@H](C#N)Cc2ccc(-c3cc4c(C)nc(C)c(C)n4c3)cc2)OC1 (some centres unmarked) [Compound A126]
76.5 to 93.9% | 40 to 66.7% | CO[C@H]1CCO[C@H](C(=O)N[C@H](C#N)Cc2ccc(-c3cc4c(C)ncc(C)n4c3)cc2)CNC1 [Compound A128]
76.5 to 93.9% | 40 to 66.7% | CO[C@H]1CCO[C@H](C(=O)N[C@H](C#N)Cc2ccc(-c3cc4c(C)nc(C)c(C)n4c3)cc2)CNC1 [Compound A129]
≤ 76.5% | ≥ 66.7% | Cc1ncc(C)n2cc(-c3ccc(C[C@@H](C#N)NC(=O)[C@@H]4CN[C@@H](C)[C@H](O)CO4)cc3)cc12 [Compound A131]
76.5 to 93.9% | ≥ 66.7% | Cc1nc(C)c2cc(-c3ccc(C[C@@H](C#N)NC(=O)[C@@H]4CN[C@@H](C)[C@H](O)CO4)cc3)cn2c1C [Compound A132]
≤ 76.5% | 40 to 66.7% | Cc1ncc(C)n2cc(-c3ccc(C[C@@H](C#N)NC(=O)[C@@H]4CN[C@@H](C)[C@@H](O)CO4)cc3)cc12 [Compound A134]
≤ 76.5% | ≤ 40% | Cc1nc(C)c2cc(-c3ccc(C[C@@H](C#N)NC(=O)[C@@H]4CN[C@@H](C)[C@@H](O)CO4)cc3)cn2c1C [Compound A135]
76.5 to 93.9% | ≤ 40% | Cc1ncc(C)n2cc(-c3ccc(C[C@@H](C#N)NC(=O)[C@@H]4CNCCCO4)cc3)cc12 [Compound A140]
76.5 to 93.9% | ≤ 40% | Cc1nc(C)c2cc(-c3ccc(C[C@@H](C#N)NC(=O)[C@@H]4CNCCCO4)cc3)cn2c1C [Compound A141]
≤ 76.5% | 40 to 66.7% | CN1CCC(n2ncc3ccc(-c4ccc(C[C@@H](C#N)NC(=O)[C@@H]5CNCCCO5)c(F)c4)cc32)CC1 [Compound A144]
≥ 93.9% | ≥ 66.7% | CO[C@@H]1CCNC[C@@H](C(=O)N[C@H](C#N)Cc2cc3c(cc2F)-c2ccc(C#N)cc2CO3)OC1 [Compound B20]
76.5 to 93.9% | ≥ 66.7% | CO[C@@H]1CCNC[C@@H](C(=O)NC(C#N)Cc2cc3c(cc2F)-c2cc(C#N)ccc2CO3)OC1 (some centres unmarked) [Compound B21]
≤ 76.5% | 40 to 66.7% | CO[C@H]1CCO[C@H](C(=O)N[C@H](C#N)Cc2cc3c(cc2F)-c2ccc(C#N)cc2CO3)CNC1 [Compound B24]
≤ 76.5% | 40 to 66.7% | CO[C@H]1CCO[C@H](C(=O)NC(C#N)Cc2cc3c(cc2F)-c2cc(C#N)ccc2CO3)CNC1 (some centres unmarked) [Compound B25]
≤ 76.5% | 40 to 66.7% | CO[C@H]1CCO[C@H](C(=O)NC(C#N)Cc2cc3c(cc2F)-c2ccc(F)cc2CO3)CNC1 (some centres unmarked) [Compound B26]
≤ 76.5% | 40 to 66.7% | N#Cc1ccc2c(c1)COc1cc(C[C@@H](C#N)NC(=O)[C@@H]3CNCCCCO3)c(F)cc1-2 [Compound B28]
